Experimental data as given in patent US20250122223A1, “HETEROCYCLIC COMPOUNDS AS UBIQUITIN SPECIFIC PROTEASE 7 INHIBITORS” (ALMAC DISCOVERY LIMITED, priority 2022, published 2025).
Values after ≈ are worked out from the molar mass of the structure shown.

Tests used:
[1] = CLint/CLhep estimates using liver microsomes (human); assay type: in vitro ADME
Experimental: (§1) Test compounds (final concentration=1 μM; final DMSO concentration=0.1%) were incubated in 0.1M phosphate buffer pH 7.4 with liver microsomes (human, mouse, rat or dog; 0.5 mg of protein/mL) at 37° C. Reactions were started by addition of NADPH in 0.1M phosphate buffer pH 7.4 (final concentration 1 mM). 40 μL aliquots were removed at 3, 6, 10, 15, 20, 30, 40 and 50 minutes. Reactions were quenched in 80 μL of ice-cold methanol. Samples were subsequently frozen overnight then centrifuged at 3500 rpm for 20 minutes at 4° C. The supernatants were removed and transferred into analytical plates and analysed by LC/MS/MS.
(§2) All samples were analysed on a Waters Acquity I-Class coupled to a Waters Xevo TQD mass spectrometer. A Waters BEH C18 2.1×50 mm 1.7 μm column was used and mobile phases were water and methanol containing 0.1% formic acid as modifier. Analysis was by multiple reaction monitoring and conditions were optimised for each test compound.
(§3) From a plot of In peak area against time, the gradient of the line is determined.
(§4) Subsequently, half-life and intrinsic clearance are calculated using the equations below: […]
(§5) The CLhep was calculated as follows: […]
(§6) Where CLint (mL/min/kg) is the intrinsic clearance scaled to a whole liver and Qh is hepatic liver blood flow.

[2] = Pharmacokinetic (PK) parameters in mouse; assay type: in vivo, BALB/c mouse; settings: for AUC(0-inf) / half-life / Vd: blood; for Vd: read-out: Vss
[3] = target: T1, USP7 (Homo sapiens (Human), UniProt Q93009); experiment: Target engagement assay-HTRF, competition with HA-Ub-VPS probe in HEK293 cells stably expressing Flag-tagged USP7; assay type: cell-based; settings: HEK293 stable clone M6C5, 2 h treatment; read-out: Cellular target engagement: HEK293 Stable clone M6C5 USP7 IC50
Experimental: HEK293 cells stably expressing Flag-tagged USP7 were treated with vehicle (DMSO) or compound (using 50 μM starting concentration and 11 dp using 1:3 serial dilution) for 2 h and subsequently lysed on ice and homogenised. Cell lysate and HA-Ub-VPS probe was then added to a white flat bottomed 384 well plate (Greiner) to a total volume of 10 μL and incubated for 40 min. 10 μL of D2 and Tb detection antibodies were subsequently added to give a final assay volume of 20 μL. Following incubation, HTRF were measured using a Pherastar FSX (BMG Labtech) exciting at 337 nm and measuring the emission at 620/665 nm. The HTRF ratiometric signal was derived and subsequently normalised to the lysate only controls. Data were plotted and fitted, and the concentrations resulting in 50% inhibition (IC50) were calculated using the non-linear regression curve fitting model using GraphPad Prism. IC50 values for the inhibitors of the invention are compiled in Table 1 above and represent the average of at least duplicate experiments.

[4] = CLint/CLhep estimates using liver microsomes (rat); assay type: in vitro ADME
Experimental: as §1, §2, §3, §4, §5, §6

[5] = Kinetic solubility in PBS buffer; assay type: physicochemical; settings: aqueous buffer, kinetic from dmso stock; PBS buffer pH 7.4
Experimental: Test compounds (5 μL; 10 mM DMSO stock) were added to 245 μL of PBS buffer pH 7.4 (Dulbecco A) in a Millipore MultiScreen® Solubility Filter plate and mixed at 300 rpm at room temperature on a plate shaker for 90 minutes. Meanwhile 5-points calibration curves for each compound were established in a mixture of acetonitrile/PBS buffer (top concentration 200 μM). After filtration and matrix match, the calibration and assay plates were analysed on a BMG Labtech CLARIOstar plate reader (240-400 nm). Final concentration of the test compound in the filtrate was calculated using the slope of the calibration curve.

[6] = CLint/CLhep estimates using liver microsomes (mouse); assay type: in vitro ADME
Experimental: as §1, §2, §3, §4, §5, §6

[7] = target: T1, USP7; experiment: USP7 fluorescence polarisation (FP) assay with ubiquitin-Lys-TAMRA substrate; assay type: biochemical
[8] = CLint/CLhep estimates using liver microsomes (dog); assay type: in vitro ADME
Experimental: as §1, §2, §3, §4, §5, §6

[9] = average of at least duplicate experiments, read-out: Biochemical: USP7 IC50
[10] = biochemical inhibition, read-out: USP7 IC50 activity (Table 3a, classes)
[11] = biochemical inhibition, unit not given in Table 3b (Table 1 and key of Table 3a use μM), read-out: USP7 IC50 activity (Table 3b)

T1 sequence (Q93009 whole entry): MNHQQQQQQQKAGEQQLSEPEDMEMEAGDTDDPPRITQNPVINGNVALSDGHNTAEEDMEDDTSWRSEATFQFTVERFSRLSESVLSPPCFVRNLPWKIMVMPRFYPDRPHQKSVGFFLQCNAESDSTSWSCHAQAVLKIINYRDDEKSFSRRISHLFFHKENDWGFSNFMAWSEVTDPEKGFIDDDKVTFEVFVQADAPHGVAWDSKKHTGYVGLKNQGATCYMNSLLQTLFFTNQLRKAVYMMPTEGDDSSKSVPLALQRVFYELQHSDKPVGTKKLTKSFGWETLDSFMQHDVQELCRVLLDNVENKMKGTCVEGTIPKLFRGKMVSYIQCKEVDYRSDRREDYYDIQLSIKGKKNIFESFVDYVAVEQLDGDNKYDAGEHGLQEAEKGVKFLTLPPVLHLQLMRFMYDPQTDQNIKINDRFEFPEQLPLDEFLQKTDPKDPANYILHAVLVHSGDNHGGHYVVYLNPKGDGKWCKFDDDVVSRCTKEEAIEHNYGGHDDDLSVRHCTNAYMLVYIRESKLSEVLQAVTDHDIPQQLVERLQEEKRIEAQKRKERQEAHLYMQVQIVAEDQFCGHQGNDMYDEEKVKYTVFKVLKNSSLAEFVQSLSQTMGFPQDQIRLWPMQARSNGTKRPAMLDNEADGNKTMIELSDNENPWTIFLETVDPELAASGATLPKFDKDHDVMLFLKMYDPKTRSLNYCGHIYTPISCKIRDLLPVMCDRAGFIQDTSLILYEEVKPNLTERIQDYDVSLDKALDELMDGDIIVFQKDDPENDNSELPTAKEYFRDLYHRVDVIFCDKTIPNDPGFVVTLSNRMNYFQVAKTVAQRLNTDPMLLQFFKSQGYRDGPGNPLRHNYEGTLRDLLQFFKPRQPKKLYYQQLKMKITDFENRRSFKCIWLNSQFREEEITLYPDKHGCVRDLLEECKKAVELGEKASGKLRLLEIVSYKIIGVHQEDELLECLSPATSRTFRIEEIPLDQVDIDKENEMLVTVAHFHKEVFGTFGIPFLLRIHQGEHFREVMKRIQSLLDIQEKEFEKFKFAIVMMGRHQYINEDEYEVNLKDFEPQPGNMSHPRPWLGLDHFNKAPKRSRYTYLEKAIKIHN

SMILES: C[C@H]1CN[C@H](c2ccc(-n3c(Cl)cc4c(=O)n(CC5(O)CCN(C(=O)[C@]6(C)C[C@H]6C(F)(F)F)CC5)cnc43)cc2)CO1 (single isomer, unassigned) [Example 32, 6-Chloro-3-((4-hydroxy-1-((1S,2S)-1-methyl-2-(trifluoromethyl)cyclopropane-1-carbonyl)piperidin-4-yl)methyl)-7-(4-((3R,6S)-6-methylmorpholin-3-yl)phenyl)-3,7-dihydro-4H-pyrrolo[2,3-d]pyrimidin-4-one or 6-chloro-3-((4-hydroxy-1-((1R,2R)-1-methyl-2-(trifluoromethyl)cyclopropane-1-carbonyl)piperidin-4-yl)methyl)-7-(4-((3R,6S)-6-methylmorpholin-3-yl)phenyl)-3,7-dihydro-4H-pyrrolo[2,3-d]pyrimidin-4-one]
- Liver Microsomes: CLhep Human [1]: 5.8 mL/min/kg
- CLb ([2]; BALB/c mouse IV 1 mg/kg): 28.2 mL/min/kg
- F ([2]; BALB/c mouse PO 3 mg/kg): 116%
- AUC(0-inf) ([2]; BALB/c mouse IV 1 mg/kg): 591 ng·h/mL
- half-life ([2]; BALB/c mouse IV 1 mg/kg): 3.5 h
- Vd ([2]; BALB/c mouse IV 1 mg/kg): 5.49 L/kg
- AUC(0-inf) ([2]; BALB/c mouse PO 3 mg/kg): 2100 ng·h/mL
- IC50 [3]: 130 nM
- Liver Microsomes: CLhep Rat [4]: 6.5 mL/min/kg
- solubility kinetic at 90 min [5]: 197 µM (≈ 120 µg/mL)
- Liver Microsomes: CLhep Mouse [6]: 11.5 mL/min/kg
- IC50 [7, 9]: 0.048 µM
- IC50 [7, 10]: < 0.1 µM
- IC50 [7, 11]: 0.048 µM
- Liver Microsomes: CLhep Dog [8]: 4.5 mL/min/kg

SMILES: CC1(C(=O)N2CCC(O)(Cn3cnc4c(cc(Cl)n4-c4cccc(N5CCOCC5)c4)c3=O)CC2)CC1 [Comparative Example, reference compound]
- Liver Microsomes: CLhep Human [1]: 14.5 mL/min/kg
- IC50 [3]: > 50000 nM
- Liver Microsomes: CLhep Rat [4]: 27 mL/min/kg
- solubility kinetic at 90 min [5]: 151 µM (≈ 79.4 µg/mL)
- Liver Microsomes: CLhep Mouse [6]: 63.9 mL/min/kg
- IC50 [7, 9]: 0.19 µM
- Liver Microsomes: CLhep Dog [8]: 22.3 mL/min/kg

SMILES: C[C@H]1CN[C@H](c2ccc(-n3c(Cl)cc4c(=O)n(CC5(O)CCN(C(=O)c6ccc(F)cc6)CC5)cnc43)cc2)CO1 [Example 21, 6-Chloro-3-((1-(4-fluorobenzoyl)-4-hydroxypiperidin-4-yl)methyl)-7-(4-((3R,6S)-6-methylmorpholin-3-yl)phenyl)-3,7-dihydro-4H-pyrrolo[2,3-d]pyrimidin-4-one]
- Liver Microsomes: CLhep Human [1]: 3.2 mL/min/kg
- CLb ([2]; BALB/c mouse IV 1 mg/kg): 35.1 mL/min/kg
- F ([2]; BALB/c mouse PO 3 mg/kg): 40.3%
- AUC(0-inf) ([2]; BALB/c mouse IV 1 mg/kg): 479 ng·h/mL
- half-life ([2]; BALB/c mouse IV 1 mg/kg): 2.09 h
- Vd ([2]; BALB/c mouse IV 1 mg/kg): 3.89 L/kg
- AUC(0-inf) ([2]; BALB/c mouse PO 3 mg/kg): 593 ng·h/mL
- IC50 [3]: 180 nM
- Liver Microsomes: CLhep Rat [4]: 6.5 mL/min/kg
- solubility kinetic at 90 min [5]: 203 µM (≈ 118 µg/mL)
- Liver Microsomes: CLhep Mouse [6]: 19.1 mL/min/kg
- IC50 [7, 9]: 0.11 µM
- IC50 [7, 10]: 0.1 to 0.25 µM
- IC50 [7, 11]: 0.108 µM
- Liver Microsomes: CLhep Dog [8]: 4.5 mL/min/kg

SMILES: CC1(C(=O)N2CCC(O)(Cn3cnc4c(cc(Cl)n4-c4ccc([C@H]5COCCN5)cc4)c3=O)CC2)CC1C(F)(F)F (stereo partly drawn) [Example 83, 6-Chloro-3-((4-hydroxy-1-(1-methyl-2-(trifluoromethyl)cyclopropane-1-carbonyl)piperidin-4-yl)methyl)-7-(4-((S)-morpholin-3-yl)phenyl)-3,7-dihydro-4H-pyrrolo[2,3-d]pyrimidin-4-one]
- IC50 [3]: 76 nM
- IC50 [7, 9]: 0.028 µM
- IC50 [7, 10]: < 0.1 µM
- IC50 [7, 11]: 0.028 µM
